Laboratory results as given in EP0092073A1, “Magnesium salt of chenodeoxycholic acid and ursodeoxycholic acid, the process for its preparation, and therapeutic compositions which contain it as active principle” (SCHWARZ ITALIA S.p.A., priority 1982, dated 1983).

Tests used:
Format in all cases: in vivo
[1] = system: rat; assay: Acute lethality and toxicity, oral administration (gastric probe); set-up: key to Toxic symptomatology Type: NN = no symptomatology; D = depression; conditions: for % mortality at following times after administration 24 h / % mortality at following times after administration 7 days / Toxic symptomatology Type / Toxic symptomatology Latency: oral; for LD50 (mg/kg with reliability limits) 7 days after treatment: po, probit method
Experimental: (§1) Unless otherwise specified, the research was carried out using: a) Mg-UCD capsules as such; b) the powdered contents of Mg-UCD capsules; CDCA (chenodeoxycholic acid) and UDCA (ursodeoxycholic acid) as pure substance which in all cases was partly dissolved and partly suspended under warm conditions (T = 30°C) in 10% gum arabic mucilage (so as to administer 10-40 ml of liquid per kg orally). In certain cases, namely in the experiments involving parenteral administration, the active principle of Mg-UCD, the chenodeoxycholic acid and ursodeoxycholic acid were dissolved in distilled water of slightly alkaline pH (5-10 ml/kg).
(§2) The generally acute lethality, toxicity and tolerability were determined by oral administration of the Mg-UCD (by gastric probe) in the Mus musculus, rat and dog. Animals of both sexes were used, none of which were pregnant. They were fasted for about 12 hours before treatment (but allowing them free access to water). The investigations were carried out using the Mg-UCD in powder form. Comparative investigations were carried out on the rat and Mus musculus using the active principle by endoperitoneal administration, and chenodeoxycholic acid and ursodeoxycholic acid by oral administration (using a gastric probe). Each dose was administered to 20 rats or Mus musculus (10 male and 10 female) and to eight dogs (4 male and 4 female). The animals were observed attentively during the 7 days following administration, and any lethality, toxic symptoms, disturbances, functional variations determinable with the eye, behaviour etc. were noted.
(§3) The LD50 was determined 7 days after administration using the probit method.

[2] = system: Mus musculus; assay: as above; set-up: key to Toxic symptomatology Type: NN = no symptomatology; D = depression; conditions: for % mortality at following times after administration 24 h / % mortality at following times after administration 7 days / Toxic symptomatology Type / Toxic symptomatology Latency: oral; for LD50 (mg/kg with reliability limits) 7 days after treatment: po, probit method
Experimental: as §1, §2, §3

[3] = system: hampsters; assay: Bile lipid and bile acid contents of the bile (cholesterol-enriched diet, 80 days)
Experimental: (§4) The investigations were carried out on hampsters (of female sex, but excluding those in a state of pregnancy) having an initial weight of 75-90 g. They were treated for 80 days with oral administration (by gastric probe) of MG-UCD (10-20 mg/kg/day), chenodeoxycholic acid (10-20 mg/kg/day) or ursodeoxycholic acid (10-20 mg/kg/day) (Tables 4 and 5). The animals were maintained for 80 consecutive days on a Nossan feed diet for rats, enriched with cholesterol (2 mg/g of food).
(§5) Each experimental group consisted of 10 units. After 80 days, the animals were narcotised with ethyl ether, and the bile was withdrawn, together with the calculi and crystals from the gall-bladder as described by Pearlman and coll. in Gastroenterology 77, 634 (1979).
The bile acid, phospholipid, cholesterol, cholic acid, chenodeoxycholic acid, ursodeoxycholic acid, DCA (deoxycholic acid) and LCA (lithocholic acid) contents were evaluated in the bile by the methods described by Pearlman and coll. (see above).

[4] = system: hampsters; assay: Action on the formation of cholesterol calculi in the gall-bladder (cholesterol-enriched diet, 80 days); conditions: for % animals with calculi / % animals with crystals: cholesterol-enriched diet
Experimental: as §4, §5

[5] = system: patients; assay: Controlled study in comparison with the free acids; tolerability in patients
[6] = Rat F, 5000 mg/kg (1200 Dts/kg)
[7] = Rat F, 10000 mg/kg (2400 Dts/kg)
[8] = Rat M, 5000 mg/kg (1200 Dts/kg)
[9] = Rat M, 10000 mg/kg (2400 Dts/kg)
[10] = M. musculus F, 250 mg/kg (60 Dts/kg)
[11] = M. musculus F, 2500 mg/kg (600 Dts/kg)
[12] = M. musculus F, 5000 mg/kg (1200 Dts/kg)
[13] = M. musculus F, 10000 mg/kg (2400 Dts/kg)
[14] = M. musculus M, 250 mg/kg (60 Dts/kg)
[15] = M. musculus M, 2500 mg/kg (600 Dts/kg)
[16] = M. musculus M, 5000 mg/kg (1200 Dts/kg)
[17] = M. musculus M, 10000 mg/kg (2400 Dts/kg)
[18] = female hampsters, 10 mg/kg/day oral for 80 days
[19] = female hampsters, 20 mg/kg/day oral for 80 days

double magnesium salt of chenodeoxycholic acid and ursodeoxycholic acid [Mg-UCD]
% mortality at following times after administration 24 h ([1]; Rat F, 250 mg/kg (60 Dts/kg)): 0%
% mortality at following times after administration 7 days ([1]; Rat F, 250 mg/kg (60 Dts/kg)): 0%
Toxic symptomatology Type ([1]; Rat F, 250 mg/kg (60 Dts/kg)): NN
% mortality at following times after administration 24 h ([1]; Rat F, 2500 mg/kg (600 Dts/kg)): 0%
% mortality at following times after administration 7 days ([1]; Rat F, 2500 mg/kg (600 Dts/kg)): 0%
Toxic symptomatology Latency ([1]; Rat F, 2500 mg/kg (600 Dts/kg)): 5-10 min
Toxic symptomatology Type ([1]; Rat F, 2500 mg/kg (600 Dts/kg)): D
% mortality at following times after administration 24 h [1, 6]: 0%
% mortality at following times after administration 7 days [1, 6]: 0%
Toxic symptomatology Latency [1, 6]: 5-10 min
Toxic symptomatology Type [1, 6]: D
% mortality at following times after administration 24 h [1, 7]: 10%
% mortality at following times after administration 7 days [1, 7]: 10%
Toxic symptomatology Latency [1, 7]: 5-10 min
Toxic symptomatology Type [1, 7]: D
LD50 (mg/kg with reliability limits) 7 days after treatment ([1]; Rat F): 13100 (10515-16319) mg/kg
% mortality at following times after administration 24 h ([1]; Rat M, 250 mg/kg (60 Dts/kg)): 0%
% mortality at following times after administration 7 days ([1]; Rat M, 250 mg/kg (60 Dts/kg)): 0%
Toxic symptomatology Type ([1]; Rat M, 250 mg/kg (60 Dts/kg)): NN
% mortality at following times after administration 24 h ([1]; Rat M, 2500 mg/kg (600 Dts/kg)): 0%
% mortality at following times after administration 7 days ([1]; Rat M, 2500 mg/kg (600 Dts/kg)): 0%
Toxic symptomatology Latency ([1]; Rat M, 2500 mg/kg (600 Dts/kg)): 5-10 min
Toxic symptomatology Type ([1]; Rat M, 2500 mg/kg (600 Dts/kg)): D
% mortality at following times after administration 24 h [1, 8]: 0%
% mortality at following times after administration 7 days [1, 8]: 0%
Toxic symptomatology Latency [1, 8]: 5-10 min
Toxic symptomatology Type [1, 8]: D
% mortality at following times after administration 24 h [1, 9]: 10%
% mortality at following times after administration 7 days [1, 9]: 10%
Toxic symptomatology Latency [1, 9]: 5-10 min
Toxic symptomatology Type [1, 9]: D
LD50 (mg/kg with reliability limits) 7 days after treatment ([1]; Rat M): 14011(10884-18033) mg/kg
% mortality at following times after administration 24 h [2, 10]: 0%
% mortality at following times after administration 7 days [2, 10]: 0%
Toxic symptomatology Type [2, 10]: NN
% mortality at following times after administration 24 h [2, 11]: 0%
% mortality at following times after administration 7 days [2, 11]: 0%
Toxic symptomatology Latency [2, 11]: 5-10 min
Toxic symptomatology Type [2, 11]: D
% mortality at following times after administration 24 h [2, 12]: 0%
% mortality at following times after administration 7 days [2, 12]: 0%
Toxic symptomatology Latency [2, 12]: 5-10 min
Toxic symptomatology Type [2, 12]: D
% mortality at following times after administration 24 h [2, 13]: 10%
% mortality at following times after administration 7 days [2, 13]: 10%
Toxic symptomatology Latency [2, 13]: 5-10 min
Toxic symptomatology Type [2, 13]: D
LD50 (mg/kg with reliability limits) 7 days after treatment ([2]; M. musculus F): 14011 (10884-18033) mg/kg
% mortality at following times after administration 24 h [2, 14]: 0%
% mortality at following times after administration 7 days [2, 14]: 0%
Toxic symptomatology Type [2, 14]: NN
% mortality at following times after administration 24 h [2, 15]: 0%
% mortality at following times after administration 7 days [2, 15]: 0%
Toxic symptomatology Latency [2, 15]: 5-10 min
Toxic symptomatology Type [2, 15]: D
% mortality at following times after administration 24 h [2, 16]: 0%
% mortality at following times after administration 7 days [2, 16]: 0%
Toxic symptomatology Latency [2, 16]: 5-10 min
Toxic symptomatology Type [2, 16]: D
% mortality at following times after administration 24 h [2, 17]: 10%
% mortality at following times after administration 7 days [2, 17]: 10%
Toxic symptomatology Latency [2, 17]: 5-10 min
Toxic symptomatology Type [2, 17]: D
LD50 (mg/kg with reliability limits) 7 days after treatment ([2]; M. musculus M): 13100 (10515-16319) mg/kg
Bile acids (expressed as molar % ± s.e.) Cheno-deoxycholic acid ([3]; 10 mg/kg/day oral for 80 days): 28.6 ± 2.9 molar %
Bile acids (expressed as molar % ± s.e.) Cholic acid ([3]; 10 mg/kg/day oral for 80 days): 18.1 ± 2.6 molar %
Bile acids (expressed as molar % ± s.e.) DCA ([3]; 10 mg/kg/day oral for 80 days): 13.4 ± 0.5 molar %
Bile acids (expressed as molar % ± s.e.) LCA ([3]; 10 mg/kg/day oral for 80 days): 2.4 ± 0.1 molar %
Bile acids (expressed as molar % ± s.e.) Urso-deoxycholic acid ([3]; 10 mg/kg/day oral for 80 days): 21.7 ± 2.9 molar %
Bile lipids (expressed as molar % ± s.e.) Bile acids ([3]; 10 mg/kg/day oral for 80 days): 78.6 ± 5.3 molar %
Bile lipids (expressed as molar % ± s.e.) Cholesterol ([3]; 10 mg/kg/day oral for 80 days): 6.9 ± 0.4 molar %
Bile lipids (expressed as molar % ± s.e.) Phospho-lipids ([3]; 10 mg/kg/day oral for 80 days): 15.6 ± 1.7 molar %
Bile acids (expressed as molar % ± s.e.) Cheno-deoxycholic acid ([3]; 20 mg/kg/day oral for 80 days): 24.4 ± 3.1 molar %
Bile acids (expressed as molar % ± s.e.) Cholic acid ([3]; 20 mg/kg/day oral for 80 days): 11.4 ± 1.7 molar %
Bile acids (expressed as molar % ± s.e.) DCA ([3]; 20 mg/kg/day oral for 80 days): 10.5 ± 0.4 molar %
Bile acids (expressed as molar % ± s.e.) LCA ([3]; 20 mg/kg/day oral for 80 days): 3.6 ± 0.2 molar %
Bile acids (expressed as molar % ± s.e.) Urso-deoxycholic acid ([3]; 20 mg/kg/day oral for 80 days): 54.9 ± 3.6 molar %
Bile lipids (expressed as molar % ± s.e.) Bile acids ([3]; 20 mg/kg/day oral for 80 days): 80.7 ± 4.7 molar %
Bile lipids (expressed as molar % ± s.e.) Cholesterol ([3]; 20 mg/kg/day oral for 80 days): 4.7 ± 0.3 molar %
Bile lipids (expressed as molar % ± s.e.) Phospho-lipids ([3]; 20 mg/kg/day oral for 80 days): 14.7 ± 1.9 molar %
% animals with calculi [4, 18]: 20%
% animals with crystals [4, 18]: 20%
% animals with calculi [4, 19]: 0%
% animals with crystals [4, 19]: 0%
Body weight (g ± s.e.) after following days 80 ([4]; female hampsters, day 80, oral, 10 mg/kg/day): 152 ± 8 g
appearance of cholesterol calculi and crystals in the gall-bladder ([4]; hampster, oral, more intense than chenodeoxycholic acid or ursodeoxycholic acid): hinders the appearance of cholesterol calculi and crystals in the gall-bladder in a dose-dependent manner
anti-dislipidemic effect ([5]; in particular hypotriglyceridemic, at much smaller doses than the individual bile acids): modest anti-dislipidemic effect
side effects ([5]; patients): No significant side effects
effects compared with the free acids ([5]; relatively small doses of the salt against double doses of each acid administered separately): greater effects
